Experimental data reported in EP3436024B1, “3-BETA-METHOXY-PREG FOR USE IN THE TREATMENT OF TREATMENT RESISTANT DEPRESSION” (Mapreg, priority 2016, dated 2017).

How the values were obtained:
Wistar Kyoto (WKY) rats [1] = experiment: Locomotor activity in the open-field arena, WKY rats; type: in vivo, rat; details: acute, fluoxetine 10 mg/kg i.p., ketamine 30 mg/kg i.p., 3 min, Fig. 5A
Procedure: (§1) After a 6-day period of acclimatization, all experimental groups received daily successive subcutaneous (250 µl per rat) and intraperitoneal (1 ml/kg) injections. WI rats received injection of vehicle (sesame oil + saline) while WKY rats were randomly assigned to […], as follow: KWY rats receiving only vehicle (sesame oil + saline) and WKY rats treated with MAP4343 (10 mg/kg, s.c.; rats received in parallel i.p. injections of saline), fluoxetine (10 mg/kg i.p., rats received in parallel s.c. injections of sesame oil) or ketamine (30 mg/kg, i.p.; rats received in parallel s.c. injections of sesame oil) (see Figure 3).
(§2) After, a 6-day period of acclimatization, the acute phase of treatment started for 4 days during behavioral tests were performed (Figure 3). All animals were injected 1h30 before the starting of behavioral test.
(§3) The animals were individually placed in the open field arena (OFA) (70 x 100 x 70 cm), with a central square (35 x 50 cm), located in a 50 lux illuminated room and videotaped during 3 min using a computerized system (VideoTrack V2.5, ViewPoint, Lyon, France).
(§4) OFA allows firstly the evaluation of total locomotor activity (LMA) thereby measuring the total distance travelled in the arena (in cm). Secondly, measurements of the activity in the center of the arena like (i) the number of entries in the center of arena and (ii) the total time spent in the center of arena (in sec) provide cues of anxiety-like behavior (Prut and Belzung, 2003). All these behavioral parameters were instantaneously measured automatically with the VideoTrack V2.5 software from the videos.

Wistar Kyoto (WKY) rats [2] = experiment: Anxious-like behavior: activity in the central square of the open-field arena, WKY rats; type: in vivo, rat; details: acute, MAP4343 10 mg/kg s.c., fluoxetine 10 mg/kg i.p., ketamine 30 mg/kg i.p.
Procedure: as §1, §2, §3, §4

Wistar Kyoto (WKY) rats [3] = experiment: Elevated-plus maze (EPM), WKY rats; type: in vivo, rat; details: acute, fluoxetine 10 mg/kg, Fig. 5D
Procedure: as §1, §2
We used the elevated-plus maze (EPM) as an assay of anxiety-related behavior in rodents (Walf and Frye, 2007). Rats were initially placed in the center of the plus-maze, consisting of two open arms (50 x 10 cm) and two closed arms (50 x 10 cm enclosed by 40 cm walls), in a 50 lux illuminated room and videotaped during 5 min using a computerized system (VideoTrack V2.5, ViewPoint, Lyon, France). The time spent in the open versus closed arms was blindly measured by two independent experimenters from the recorded video, and the open arm-index was calculated as follow: time in the open arms (sec) / [time in open arms (sec) + time in closed arms (sec)].

Wistar Kyoto (WKY) rats [4] = experiment: Forced swimming test (FST), WKY rats; type: in vivo, rat; details: acute administration (4 days), MAP4343 10 mg/kg, fluoxetine 10 mg/kg i.p., ketamine 30 mg/kg i.p., Fig. 6C
Procedure: 3B-methoxy-PREG (also referred to as "MAP4343" in Example 4) was dissolved in sesame oil by sonication using a Sonifer-450 (Branson Ultrasonics Corporation, Danbury, USA) during 1 cycle of 5 pulses in sesame oil. Fluoxetine (Biotrend, Köln, Germany) and Ketamine (Sigma-Aldrich, St-Quentin Fallvier, France) were dissolved in sterile saline solution (NaCl 0.9%). The drug formulations were prepared freshly each day of treatment. MAP4343 was administered subcutaneously (ranging of 1-15 mg/Kg/day) while fluoxetine and ketamine were injected intraperitonealy (10 mg/Kg/day and 30 mg/Kg/day, respectively).
After a 6-day period of acclimatization, all experimental groups received daily successive subcutaneous (250 µl per rat) and intraperitoneal (1 ml/kg) injections. […]
Rats were submitted to the forced swimming test (FST), according the procedure initially described by (Detke et al., 1995) and slightly modified by (Bianchi et al., 2002). […] The pre-test and test sessions were recorded using a video camera placed above the cylinder for subsequent behavioral analysis. The immobility time (in sec) was blindly measured by two independent experimenters from recorded videos. […]
The effects of a dose-ranging administration of MAP4343 were tested in WI and WKY rats on their immobility time measured in FST.

[5] = Body weight of treated WKY rats; type: in vivo; details: fluoxetine 10 mg/kg i.p., 4 days

Compound: CNCCC(Oc1ccc(C(F)(F)F)cc1)c1ccccc1 (centres unmarked) [fluoxetine]
- locomotor activity (total distance travelled in the open-field arena), change as compared to WKY receiving vehicle (Wistar Kyoto (WKY) rats [1]; MAP4343 10 mg/kg s.c.): -45%
- locomotor activity (total distance travelled in the open-field arena), change as compared to MAP4343-treated WKY (Wistar Kyoto (WKY) rats [1]): -52%
- number of entries in the central square of OFA, change as compared to WKY receiving only vehicle (Wistar Kyoto (WKY) rats [2]; Fig. 5B): failed to significantly modify
- time spent in the center of open-field, change as compared to WKY receiving vehicle (Wistar Kyoto (WKY) rats [2]; Fig. 5C): did not induce any significant change
- open-arm (OA) index, change when compared to WKY receiving vehicle alone (Wistar Kyoto (WKY) rats [3]; MAP4343 10 mg/kg s.c., ketamine 30 mg/kg i.p.): -84%
- open-arm (OA) index, change when compared to MAP4343-treated WKY (Wistar Kyoto (WKY) rats [3]): -95%
- immobility time measured in FST, change when compared to WKY rats receiving vehicle alone (Wistar Kyoto (WKY) rats [4]): +29%
- body weight [5]: reduced body weight
